Each compound was assayed against Sigma non-opioid intracellular receptor 1 (Cavia porcellus, UniProt Q60492) (assay: Displacement of [3H](+)-pentazocine from sigma 1 receptor in guinea pig brain membrane).
Format: cell membranes

Sigma non-opioid intracellular receptor 1, sequence (Q60492 whole entry): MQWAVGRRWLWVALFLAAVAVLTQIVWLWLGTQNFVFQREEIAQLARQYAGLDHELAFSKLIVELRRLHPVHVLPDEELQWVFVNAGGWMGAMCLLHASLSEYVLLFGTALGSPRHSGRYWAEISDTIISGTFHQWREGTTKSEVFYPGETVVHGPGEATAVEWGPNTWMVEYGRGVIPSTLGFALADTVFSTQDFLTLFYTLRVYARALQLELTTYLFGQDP

Compound | Ki
CO[C@H]1Cc2sc(-c3ccccc3)cc2C2(CCN(Cc3ccco3)CC2)O1 | 2.2 nM
CO[C@H]1Cc2c(cnn2-c2ccccc2)C2(CCN(C(C)C)CC2)O1 | 210 nM
CCOC(=O)C[C@H]1OC2(CCN(Cc3ccccc3)CC2)c2ccccc21 | 15 nM
CO[C@H]1Cc2ccccc2C2(CCN(CCCCc3ccccc3)CC2)O1 | 10 nM
CO[C@@H]1OC2(CCN(Cc3ccccc3)CC2)c2cnn(-c3ccccc3)c21 | 0.49 nM
CO[C@@H]1Cc2ccccc2[C@@]2(CCCN(Cc3ccccc3)C2)O1 (racemic) | 1720 nM
CCCN1CCC2(CC1)O[C@@H](OC)Cc1c2cnn1C | 2980 nM
CO[C@H]1Cc2c(cnn2-c2ccccc2)C2(CCN(Cc3ccccc3)CC2)O1 | 1.5 nM
CO[C@H]1CCc2ccccc2C2(CCN(Cc3ccccc3)CC2)O1 | 2.6 nM
CC(C)=CCN1CCC2(CC1)OCCc1c2cnn1C | 14 nM
OCC[C@@H]1Cc2ccccc2C2(CCN(CC3CCCCC3)CC2)O1 | 9 nM
CC(=O)C[C@@H]1Cc2sccc2C2(CCN(Cc3ccccc3)CC2)O1 | 9.4 nM
CCOC(=O)C[C@H]1Cc2ccccc2C2(CCN(Cc3ccccc3)CC2)O1 | 183 nM
CO[C@H]1Cc2sccc2C2(CCN(CC3CCCCC3)CC2)O1 | 0.3 nM
OCC[C@@H]1Cc2ccccc2C2(CCN(CCCc3ccccc3)CC2)O1 | 68 nM
OCC[C@H]1Cc2ccccc2C2(CCN(Cc3ccccc3)CC2)O1 | 10 nM
CCCN1CCC2(CC1)O[C@@H](OC)Cc1c2cnn1-c1ccccc1 | 33 nM
O[C@H]1Cc2ccccc2C2(CCN(CCc3ccccc3)CC2)O1 | 44 nM
CO[C@H]1Cc2sc(C(=O)c3ccccc3)cc2C2(CCN(Cc3ccccc3)CC2)O1 | 3.7 nM

Compound | Ki
CO[C@H]1Cc2sccc2C2(CCN(CC=C(C)C)CC2)O1 | 1 nM
O[C@H]1OC2(CCN(CCc3ccccc3)CC2)c2ccccc21 | 109 nM
CCCCN1CCC[C@@]2(C1)O[C@H](OC)Cc1ccccc12 (racemic) | 1290 nM
c1ccc(CCCN2CCC3(CC2)OCCc2c3cnn2-c2ccccc2)cc1 | 0.81 nM
CO[C@@H]1Cc2ccccc2[C@@]2(CCCN(CCc3ccccc3)C2)O1 (racemic) | 470 nM
CO[C@H]1Cc2sccc2C2(CCN(CCc3ccccc3)CC2)O1 | 5.9 nM
CO[C@H]1Cc2sccc2C2(CCN(Cc3ccccc3)CC2)O1 | 0.32 nM
OCC[C@H]1Cc2ccccc2C2(CCN(CCCc3ccccc3)CC2)O1 | 15 nM
CC(=O)C[C@H]1Cc2sccc2C2(CCN(Cc3ccccc3)CC2)O1 | 12 nM
Cn1ncc2c1CCOC21CCN(CCCc2ccccc2)CC1 | 17 nM
CO[C@H]1Cc2sc(CN(C)C)cc2C2(CCN(Cc3ccccc3)CC2)O1 | 17 nM
COC(=O)c1cc2c(s1)C[C@H](OC)OC21CCN(Cc2ccccc2)CC1 | 10.9 nM
OCC[C@@H]1Cc2ccccc2C2(CCN(Cc3ccccc3)CC2)O1 | 48 nM
CO[C@H]1Cc2c(cnn2C)C2(CCN(Cc3ccccc3)CC2)O1 | 21 nM
CCC[C@H]1OC2(CCN(Cc3ccccc3)CC2)c2ccccc21 | 3.2 nM
CO[C@H]1Cc2ccccc2C2(CCN(C)CC2)O1 | 4400 nM
CO[C@H]1Cc2sccc2C2(CCN(CCCCc3ccccc3)CC2)O1 | 7.7 nM
OCC[C@H]1Cc2ccccc2C2(CCN(CC3CCCCC3)CC2)O1 | 10 nM
CO[C@H]1Cc2c(cnn2-c2ccccc2)C2(CCN(CC(C)C)CC2)O1 | 6.3 nM

Reference: ChEMBL document CHEMBL1177883, “5D-QSAR for spirocyclic sigma1 receptor ligands by Quasar receptor surface modeling” (Eur J Med Chem, 2010)
